Test results from patent US12637471B2, “Heterocyclic compounds, compositions, methods of preparation and uses thereof” (Organon R&D Finland Ltd, priority 2021, dated 2026).

What was measured:
Assay type in all cases: biochemical
[1] = molecular target: T1, Recombinant human AKR1C3 (17β-HSD5) protein (Homo sapiens, UniProt P42330); test: Inhibition of AKR1C3 (17β-hydroxysteroid dehydrogenase type 5) enzyme, fluorescence assay; details: inhibitor at 500 nM
T1 construct: made in house; host or cells: E. coli
T1 sequence (P42330 1-323): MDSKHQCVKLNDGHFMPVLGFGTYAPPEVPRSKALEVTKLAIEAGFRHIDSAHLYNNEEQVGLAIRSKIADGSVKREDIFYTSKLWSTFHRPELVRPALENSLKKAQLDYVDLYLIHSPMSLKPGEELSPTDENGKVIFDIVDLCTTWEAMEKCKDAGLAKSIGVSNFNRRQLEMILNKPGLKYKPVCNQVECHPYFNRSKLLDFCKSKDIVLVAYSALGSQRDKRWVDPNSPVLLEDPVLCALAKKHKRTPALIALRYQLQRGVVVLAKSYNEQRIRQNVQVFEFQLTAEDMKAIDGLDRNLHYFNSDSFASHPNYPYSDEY
Procedure, shortened: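 Percent inhibition at 500 nM compound, derived from substrate conversion; product alcohol measured by fluorescence (ex 420, em 510 nm) against a 1 μM–10 nM standard curve. Reaction: 27 nM recombinant AKR1C3, 1 μM ketone substrate, 1 mM NADPH, phosphate/EDTA buffer pH 7.4, 1% DMSO, RT for 60–120 min.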

[2] = molecular target: T2, 17β-Hydroxysteroid Dehydrogenase Type 2 Enzyme (17β-HSD2) (Homo sapiens, UniProt P37059); test: Inhibition of the 17β-hydroxysteroid dehydrogenase type 2 enzyme, 3H-testosterone conversion; details: inhibitor at 10 μM
T2 construct: made in house; host or cells: Sf-9 insect cells (baculovirus)
T2 sequence (P37059 1-387): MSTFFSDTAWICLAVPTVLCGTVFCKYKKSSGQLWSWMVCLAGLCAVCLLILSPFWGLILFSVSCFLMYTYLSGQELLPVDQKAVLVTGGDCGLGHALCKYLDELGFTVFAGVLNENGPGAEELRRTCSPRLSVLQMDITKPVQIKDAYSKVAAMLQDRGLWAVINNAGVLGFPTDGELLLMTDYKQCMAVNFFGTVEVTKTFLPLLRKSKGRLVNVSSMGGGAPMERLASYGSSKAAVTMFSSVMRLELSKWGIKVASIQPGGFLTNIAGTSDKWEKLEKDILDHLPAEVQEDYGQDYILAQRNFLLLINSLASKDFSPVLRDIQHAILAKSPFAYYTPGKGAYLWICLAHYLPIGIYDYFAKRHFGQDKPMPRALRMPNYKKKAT
Procedure, shortened: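 Single-point screen at 10 μM inhibitor, 1% DMSO: Sf-9-expressed human enzyme (105 nM), NAD 1 mM, ³H-labelled testosterone 56.25 nM, pH 8.5 phosphate/EDTA buffer, 30 min, room temperature. After TCA quench, substrate and product radioactivity quantified by UPLC with scintillation detection; inhibition percent from conversion.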

[3] = molecular target: T3, Recombinant human aldo-keto reductase family 1 member C2 (AKR1C2) protein (Homo sapiens, UniProt P52895); test: Inhibition of the aldo-keto reductase family 1 member C2, 3H-dihydrotestosterone conversion; details: inhibitor at 10 μM
T3 construct: made in house; host or cells: Sf-9 insect cells (baculovirus)
T3 sequence (P52895 1-323): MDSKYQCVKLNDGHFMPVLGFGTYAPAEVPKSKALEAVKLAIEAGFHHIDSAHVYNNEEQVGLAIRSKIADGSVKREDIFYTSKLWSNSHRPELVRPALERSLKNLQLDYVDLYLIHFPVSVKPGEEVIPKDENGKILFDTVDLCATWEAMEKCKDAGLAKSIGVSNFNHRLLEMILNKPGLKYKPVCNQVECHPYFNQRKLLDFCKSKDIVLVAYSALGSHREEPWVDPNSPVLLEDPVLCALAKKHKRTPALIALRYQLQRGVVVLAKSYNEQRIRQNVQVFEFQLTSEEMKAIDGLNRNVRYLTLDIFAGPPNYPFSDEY
Procedure, shortened: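 Single-point screen at 10 μM inhibitor, 1% DMSO: [3H]DHT (6.25 nM) reduction to 3α-diol by baculovirus-made AKR1C2 (13.6 nM), pH 7.4 phosphate buffer, 1 mM NADPH, 37 °C for 45 min. Radio-UPLC quantified product versus substrate to give percent inhibition.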

| inhibition at 0.5 µM [1] [%] | inhibition at 10 µM [2] [%] | inhibition at 10 µM [3] [%] | SMILES |
| --- | --- | --- | --- |
| 99 | 12 | 17 | N#CC(=C1CCN(C(=O)N2CCc3ccccc32)CC1)c1ccc(F)cc1 [Compound 102, 2-(4-fluorophenyl)-2-(1-(indoline-1-carbonyl)piperidin-4-ylidene)acetonitrile] |
| 99 | 17 | 3 | CCN(CC)C(=O)N1CCC(=C(C#N)c2ccc(C(F)(F)F)cc2)CC1 [Compound 171, 4-(cyano(4-(trifluoromethyl)phenyl)methylene)-N,N-diethylpiperidine-1-carboxamide] |
| 96 | 9 | 9 | N#CC(=C1CCN(C(=O)N2CCC(CCO)CC2)CC1)c1ccc(F)cc1 [Compound 97, 2-(4-fluorophenyl)-2-(1-(4-(2-hydroxyethyl)piperidine-1-carbonyl)piperidin-4-ylidene)acetonitrile] |
| 96 | 30 | 6 | CCOC1CCN(C(=O)N2CCC(=C(C#N)c3cccc4[nH]ncc34)CC2)CC1 [Compound 92, 2-(1-(4-ethoxypiperidine-1-carbonyl)piperidin-4-ylidene)-2-(1H-indazol-4-yl)acetonitrile] |
| 94 | 22 | 7 | N#CC(=C1CCN(C(=O)N2CCc3sccc3C2)CC1)c1ccc(OC(F)(F)F)cc1 [Compound 117, 2-(1-(4,5,6,7-tetrahydrothieno[3,2-c]pyridine-5-carbonyl)piperidin-4-ylidene)-2-(4-(trifluoromethoxy)phenyl)acetonitrile] |
| 96 | 30 | 5 | N#CC(=C1CCN(C(=O)N2C[C@@H]3CC[C@@H]2C3)CC1)c1ccc(F)cc1 [Compound 29, 2-(1-((1R,4R)-2-azabicyclo[2.2.1]heptane-2-carbonyl)piperidin-4-ylidene)-2-(4-fluorophenyl)acetonitrile] |
| 95 | 6 | 9 | N#CC(=C1CCN(C(=O)N2CCn3ncnc3C2)CC1)c1ccc(Cl)cn1 [Compound 165, 2-(5-chloropyridin-2-yl)-2-(1-(5,6,7,8-tetrahydro-[1,2,4]triazolo[1,5-a]pyrazine-7-carbonyl)piperidin-4-ylidene)acetonitrile] |
| 94 | 23 | 13 | COCC1CCN(C(=O)N2CCC(=C(C#N)c3ccc(Cl)s3)CC2)CC1 [Compound 75, 2-(5-chlorothiophen-2-yl)-2-(1-(4-(methoxymethyl)piperidine-1-carbonyl)piperidin-4-ylidene)acetonitrile] |
| 97 | 7 | 16 | N#CC(=C1CCN(C(=O)N2CCC(CO)CC2)CC1)c1ccc(F)c(F)c1 [Compound 33, 2-(3,4-difluorophenyl)-2-(1-(4-(hydroxymethyl)piperidine-1-carbonyl)piperidin-4-ylidene)acetonitrile] |
| 93 | 21 | 6 | N#CC(=C1CCN(C(=O)N2CCC(O)CC2)CC1)c1cc(F)cc(F)c1 [Compound 58, 2-(3,5-difluorophenyl)-2-(1-(4-hydroxypiperidine-1-carbonyl)piperidin-4-ylidene)acetonitrile] |
| 97 | 7 | 3 | N#CC(=C1CCN(C(=O)N2CCn3cncc3C2)CC1)c1ccc(OC(F)(F)F)cc1 [Compound 55, 2-(1-(5,6,7,8-tetrahydroimidazo[1,5-a]pyrazine-7-carbonyl)piperidin-4-ylidene)-2-(4-(trifluoromethoxy)phenyl)acetonitrile] |
| 99 | 26 | 13 | N#CC(=C1CCN(C(=O)N2CCC(CO)CC2)CC1)c1cccc(Cl)c1 [Compound 88, 2-(3-chlorophenyl)-2-(1-(4-(hydroxymethyl)piperidine-1-carbonyl)piperidin-4-ylidene)acetonitrile] |
| 98 | 23 | 11 | CC(=O)n1ncc2c(C(C#N)=C3CCN(C(=O)N4CCc5nocc5C4)CC3)cccc21 [Compound 93, 2-(1-acetyl-1H-indazol-4-yl)-2-(1-(4,5,6,7-tetrahydroisoxazolo[4,3-c]pyridine-5-carbonyl)piperidin-4-ylidene)acetonitrile] |
| 98 | 7 | 19 | N#CC(=C1CCN(C(=O)N2CCc3nocc3C2)CC1)c1ccc(Cl)cn1 [Compound 161, 2-(5-chloropyridin-2-yl)-2-(1-(4,5,6,7-tetrahydroisoxazolo[4,3-c]pyridine-5-carbonyl)piperidin-4-ylidene)acetonitrile] |
| 97 | 14 | 8 | CN(C)C(=O)N1CCC(=C(C#N)c2ccc(F)cc2)CC1 [Compound 16, 4-(cyano(4-fluorophenyl)methylene)-N,N-dimethylpiperidine-1-carboxamide] |
| 98 | 26 | 14 | CC(O)C1CCN(C(=O)N2CCC(=C(C#N)c3cccc(Cl)c3)CC2)CC1 (stereo not drawn) [Compound 154, 2-(3-chlorophenyl)-2-(1-(4-(1-hydroxyethyl)piperidine-1-carbonyl)piperidin-4-ylidene)acetonitrile] |
| 99 | 30 | 9 | N#CC(=C1CCN(C(=O)N2CCC(C(F)(F)F)CC2)CC1)c1ccc(Cl)cc1 [Compound 90, 2-(4-chlorophenyl)-2-(1-(4-(trifluoromethyl)piperidine-1-carbonyl)piperidin-4-ylidene)acetonitrile] |
| 97 | 8 | 7 | N#CC(=C1CCN(C(=O)N2CCC(O)CC2)CC1)c1n[nH]c2ccc(F)cc12 [Compound 94, 2-(5-fluoro-1H-indazol-3-yl)-2-(1-(4-hydroxypiperidine-1-carbonyl)piperidin-4-ylidene)acetonitrile] |
| 97 | -1 | 7 | N#CC(=C1CCN(C(=O)N2CCn3ncnc3C2)CC1)c1ccc(OC(F)(F)F)cc1 [Compound 167, 2-(1-(5,6,7,8-tetrahydro-[1,2,4]triazolo[1,5-a]pyrazine-7-carbonyl)piperidin-4-ylidene)-2-(4-(trifluoromethoxy)phenyl)acetonitrile] |
| 96 | 18 | 16 | N#CC(=C1CCN(C(=O)N2CCC(S(N)(=O)=O)CC2)CC1)c1cccc(Cl)c1 [Compound 99, 1-(4-((3-chlorophenyl)(cyano)methylene)piperidine-1-carbonyl)piperidine-4-sulfonamide] |
| 88 | 7 | 9 | COC1CN(C(=O)N2CCC(=C(C#N)c3ccc(F)cc3)CC2)C1 [Compound 22, 2-(4-fluorophenyl)-2-(1-(3-methoxyazetidine-1-carbonyl)piperidin-4-ylidene)acetonitrile] |

| SMILES | inhibition at 0.5 µM [1] [%] | inhibition at 10 µM [2] [%] | inhibition at 10 µM [3] [%] |
| --- | --- | --- | --- |
| N#CC(=C1CCN(C(=O)N2CCC(O)CC2)CC1)c1n[nH]c2ccccc12 [Compound 70, 2-(1-(4-hydroxypiperidine-1-carbonyl)piperidin-4-ylidene)-2-(1H-indazol-3-yl)acetonitrile] | 97 | 11 | 5 |
